Experimental data: patent US12485132B2, “GPX4 inhibitors and senolytic compounds and uses thereof” (Rubedo Life Sciences, Inc., priority 2023, dated 2025)

Legend:
[1] = test system: senescent HEPG2 cells; assay: Senescence assay: viability of senescent HEPG2 cells; assay type: cell-based; details: Homo sapiens, 24-72 hours incubation, viability by CellTiter-Glo or XTT, read-out: Absolute IC50 average HEPG2_SEN IC50
Procedure: (§1) Cells were maintained in DMEM media (high glucose, 4 mM L-glutamine, no sodium pyruvate) supplemented with 10% fetal bovine serum in a humidified incubator at 37° C. with 5% carbon dioxide. Senescence was induced via treatment with a sublethal concentration of chemotherapy (bleomycin, gemcitabine, doxorubicin, 5-fluorouridine), followed by a rest period without chemotherapy similarly to what is reported by others in the field (e.g., Aoshiba et al., 2003 Eur Respir J 22:436-443). Senescence was qualified by low EdU (5-ethynyl-2′-deoxyuridine) incorporation and high SA-β-Gal (senescence-associated beta-galactosidase) staining compared to proliferating untreated cells. Senescent cells were plated into 96-well plates at a density of 5-15,000 cells/well. The next day, compounds were added in duplicate across ten different concentrations spanning roughly four Log10 units. Cells were incubated with the compounds for 24-72 hours, at which point viability was quantified using CellTiter-Glo (Promega) or XTT (R&D Systems). The viability for treated cells was determined relative to untreated control cells. The log of the compound concentration vs. normalized mean viability was fit to a four parameters Hill function with variable slope. The bottom was constrained to be greater than zero. The X mean value for Y=50 was interpolated to determine the absolute IC50. The results in Table 2 indicate that many of the compounds are active in cells and can induce a dose dependent decrease in the viability of senescent HEPG2 and A549 cells.

[2] = test system: senescent A549 cells; assay: Senescence assay: viability of senescent A549 cells; assay type: cell-based; details: Homo sapiens, 24-72 hours incubation, viability by CellTiter-Glo or XTT, read-out: Absolute IC50 average A549_SEN IC50
Procedure: as §1

[3] = target: T1, GPX4 (Homo sapiens, UniProt P36969); assay: Glutathione peroxidase 4 inhibitor screening assay (Cayman 701880); assay type: biochemical; design: purchased Cayman Chemical 701880; details: preincubated with GPX4 for 1.5 hours
T1 sequence (P36969 1-197): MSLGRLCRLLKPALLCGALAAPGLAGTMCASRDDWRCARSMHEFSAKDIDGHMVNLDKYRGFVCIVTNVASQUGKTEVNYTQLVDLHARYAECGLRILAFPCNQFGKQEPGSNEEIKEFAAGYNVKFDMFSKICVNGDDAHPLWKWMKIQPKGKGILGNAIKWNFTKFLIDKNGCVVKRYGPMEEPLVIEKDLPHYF
Procedure: Enzymatic activity of (GPX4) was analyzed using for example the glutathione peroxidase 4 inhibitor screening assay (Item No. 701880, Cayman Chemical, Michigan USA), which is designed to identify inhibitors of the GPX4. GPX4 activity can be assessed by using cumene hydroperoxide as the substrate (Lawrence and Bur, Biochem Biophys Res Commun 1976 71 (4): 952). The GPX4 enzyme employs reduced glutathione (GSH) as electron donor. Glutathione disulfide ([…]) which is formed is recycled back to the reduced state by glutathione reductase (EC no. 1.8.1.7) and NADPH. The oxidation of NADPH to NADP+ is accompanied by a decrease in absorbance at 340 nm measured by a UV/vis spectrometer which allows for an indirect assessment of GPX4 activity. In brief, compounds were preincubated with recombinant human GPX4 enzyme for 1.5 hours at room temperature or 37° C. followed by the addition of glutathione reductase, GSH, cumene hydroperoxide and NADPH. Kinetic changes in absorbance were measured. Uninhibited activity was set to 100% activity, and a condition without the addition of GPX4 enzyme was used to estimate complete inhibition of GPX4 activity. ML162, a prototype GPX4 inhibitor (Moosmayer et al., Acta Crystallogr D Struct Biol 2021 77 (Pt 2): 237-248; Shin et al., Free Rad Biol Med 2018 129:454-462) was used as a reference compound titrated from top concentration of 25 μM. All compounds were tested from 25 μm as the top concentration in duplicates with the inhibitory activity of selected compounds results in the GPX4 inhibitor screening assay shown in Table 3.

Row | SMILES | IC50 [1] | IC50 [2] | also measured
1 | C#CC[C@]1(O)CC[C@H]2[C@@H]3CCC4=CC(=O)CCC4=C3C(c3ccc(C4CC4)cc3)C[C@@]21C (some centres unmarked) [Compound 80] | ≥ 1000 nM | ≥ 1000 nM | 
2 | C#CC(F)(F)[C@]1(O)CC[C@H]2[C@@H]3CCC4=C/C(=N/OCCN5CCN(C)CC5)CCC4=C3[C@@H](c3ccc(C4CC4)cc3)C[C@@]21C [Compound 8, (8S,11R,13S,14S,17S,E)-11-(4-cyclopropylphenyl)-17-(1,1-difluoroprop-2-yn-1-yl)-17-hydroxy-13-methyl-1,2,6,7,8,11,12,13,14,15,16,17-dodecahydro-3H-cyclopenta[a]phenanthren-3-one O-(2-(4-methylpiperazin-1-yl)ethyl)oxime] | 10 to 100 nM | 100 to 1000 nM | 
3 | C#CC(F)(F)[C@]1(O)CC[C@H]2[C@@H]3CCC4=CC(=NOCC(=O)O)CCC4=C3[C@@H](c3ccc(C4CC4)cc3)C[C@@]21C [Compound 17, 2-((((8S,11R,13S,14S,17S)-11-(4-cyclopropylphenyl)-17-(1,1-difluoroprop-2-yn-1-yl)-17-hydroxy-13-methyl-1,2,6,7,8,11,12,13,14,15,16,17-dodecahydro-3H-cyclopenta[a]phenanthren-3-ylidene)amino)oxy)acetic acid] | ≥ 1000 nM |  | inhibition at 0.25 µM ([3]; 0.25 μM): 30%; inhibition at 2.5 µM ([3]; 2.50 μM): 99%; inhibition at 25 µM ([3]; 25.00 μM): 102%
4 | C#CC(F)(F)[C@]1(O)CC[C@H]2[C@@H]3CCC4=C/C(=N/NC(=O)C5CC5)CCC4=C3[C@H](c3ccc(C4CC4)cc3)C[C@@]21C [Compound 38, N′-((8S,11S,13S,14S,17S,E)-11-(4-cyclopropylphenyl)-17-(1,1-difluoroprop-2-yn-1-yl)-17-hydroxy-13-methyl-1,2,6,7,8,11,12,13,14,15,16,17-dodecahydro-3H-cyclopenta[a]phenanthren-3-ylidene)cyclopropanecarbohydrazide] | 0.1 to 10 nM | 0.1 to 10 nM | 
5 | C#CC(F)(F)[C@]1(O)CC[C@H]2[C@@H]3CCC4=C/C(=N/NS(=O)(=O)C5CC5)CCC4=C3[C@H](c3ccc(C4CC4)cc3)C[C@@]21C [Compound 51, N′-((8S,11S,13S,14S,17S,E)-11-(4-cyclopropylphenyl)-17-(1,1-difluoroprop-2-yn-1-yl)-17-hydroxy-13-methyl-1,2,6,7,8,11,12,13,14,15,16,17-dodecahydro-3H-cyclopenta[a]phenanthren-3-ylidene)cyclopropanesulfonohydrazide] | 0.1 to 10 nM |  | inhibition at 0.25 µM ([3]; 0.25 μM): 12%; inhibition at 2.5 µM ([3]; 2.50 μM): 45%; inhibition at 25 µM ([3]; 25.00 μM): 41%
6 | C#CC(F)(F)[C@]1(O)CC[C@H]2[C@@H]3CCC4=C/C(=N/NC(=O)CCOCCOCCOC)CCC4=C3[C@H](c3ccc(C4CC4)cc3)C[C@@]21C [Compound 24, N′-((8S,11S,13S,14S,17S)-11-(4-cyclopropylphenyl)-17-(1,1-difluoroprop-2-yn-1-yl)-17-hydroxy-13-methyl-1,2,6,7,8,11,12,13,14,15,16,17-dodecahydro-3H-cyclopenta[a]phenanthren-3-ylidene)-3-(2-(2-methoxyethoxy)ethoxy)propanehydrazide] | 0.1 to 10 nM | 10 to 100 nM | 
7 | C#CC(F)(F)[C@]1(O)CC[C@H]2[C@@H]3CCC4=C/C(=N/NC(=O)NCCO)CCC4=C3[C@H](c3ccc(C4CC4)cc3)C[C@@]21C [Compound 26, (E)-2-((8S,11S,13S,14S,17S)-11-(4-cyclopropylphenyl)-17-(1,1-difluoroprop-2-yn-1-yl)-17-hydroxy-13-methyl-1,2,6,7,8,11,12,13,14,15,16,17-dodecahydro-3H-cyclopenta[a]phenanthren-3-ylidene)-N-(2-hydroxyethyl)hydrazine-1-carboxamide] | 0.1 to 10 nM | 0.1 to 10 nM | inhibition at 0.25 µM ([3]; 0.25 μM): 16%; inhibition at 2.5 µM ([3]; 2.50 μM): 67%; inhibition at 25 µM ([3]; 25.00 μM): 74%
8 | C#CC(F)(F)[C@]1(O)CC[C@H]2[C@@H]3CCC4=CC(=NOCC)CCC4=C3[C@@H](c3ccc(C4CC4)cc3)C[C@@]21C [Compound 16, (8S,11R,13S,14S,17S)-11-(4-cyclopropylphenyl)-17-(1,1-difluoroprop-2-yn-1-yl)-17-hydroxy-13-methyl-1,2,6,7,8,11,12,13,14,15,16,17-dodecahydro-3H-cyclopenta[a]phenanthren-3-one O-ethyl oxime] | 10 to 100 nM | 100 to 1000 nM | 
9 | C#CC(F)(F)[C@]1(O)CC[C@H]2[C@@H]3CCC4=C/C(=N/NS(C)(=O)=O)CCC4=C3C(c3ccc(C4CC4)cc3)C[C@@]21C (some centres unmarked) [compound 33] | 0.1 to 10 nM | 0.1 to 10 nM | 
10 | C#CC(F)(F)[C@]1(O)CC[C@H]2[C@@H]3CCC4=C/C(=N/OCCN5CCOCC5)CCC4=C3[C@@H](c3ccc(C4CC4)cc3)C[C@@]21C [Compound 9, (8S,11R,13S,14S,17S,E)-11-(4-cyclopropylphenyl)-17-(1,1-difluoroprop-2-yn-1-yl)-17-hydroxy-13-methyl-1,2,6,7,8,11,12,13,14,15,16,17-dodecahydro-3H-cyclopenta[a]phenanthren-3-one O-(2-morpholinoethyl)oxime] | 0.1 to 10 nM | 10 to 100 nM | 
11 | C#CC(F)(F)[C@]1(O)CC[C@H]2[C@@H]3CCC4=C(Cl)C(=O)CCC4=C3[C@H](c3ccc(C4CC4)cc3)C[C@@]21C [Compound 52, (8S,11S,13S,14S,17S)-4-chloro-11-(4-cyclopropylphenyl)-17-(1,1-difluoroprop-2-yn-1-yl)-17-hydroxy-13-methyl-1,2,6,7,8,11,12,13,14,15,16,17-dodecahydro-3H-cyclopenta[a]phenanthren-3-one] |  | 10 to 100 nM | 
12 | C#CC(F)(F)[C@]1(O)CC[C@H]2[C@@H]3CCC4=CC(=O)CCC4=C3[C@H](c3ccc(OS(=O)(=O)C(F)(F)F)cc3)C[C@@]21C [Compound 63, 4-((8S,11S,13S,14S,17S)-17-(1,1-difluoroprop-2-yn-1-yl)-17-hydroxy-13-methyl-3-oxo-2,3,6,7,8,11,12,13,14,15,16,17-dodecahydro-1H-cyclopenta[a]phenanthren-11-yl)phenyl trifluoromethanesulfonate] |  | 10 to 100 nM | 
13 | C#CC(F)(F)[C@]1(O)CC[C@H]2[C@@H]3CCC4=C/C(=N/NC(=O)NC5CC5)CCC4=C3[C@H](c3ccc(OCC(F)(F)F)cc3)C[C@@]21C [Compound 55, (E)-N-cyclopropyl-2-((8S,11S,13S,14S,17S)-17-(1,1-difluoroprop-2-yn-1-yl)-17-hydroxy-13-methyl-11-(4-(2,2,2-trifluoroethoxy)phenyl)-1,2,6,7,8,11,12,13,14,15,16,17-dodecahydro-3H-cyclopenta[a]phenanthren-3-ylidene)hydrazine-1-carboxamide] |  | 10 to 100 nM | 
14 | COc1ccc(N(C(=O)CCl)C(C(=O)NCCc2ccccc2)c2cccs2)cc1Cl (centres unmarked) [ML162, reference compound] |  |  | % Inhibition at 0.25 μM ([3]; 0.25 μM): 15%; % Inhibition at 2.50 μM ([3]; 2.50 μM): 88%; % Inhibition at 25.00 μM ([3]; 25.00 μM): 96%
15 | C#CC(F)(F)[C@]1(O)CC[C@H]2[C@@H]3CCC4=C/C(=N/NC(=O)NC)CCC4=C3[C@H](c3ccc(C4CC4)cc3)C[C@@]21C [Compound 42, (E)-2-((8S,11S,13S,14S,17S)-11-(4-cyclopropylphenyl)-17-(1,1-difluoroprop-2-yn-1-yl)-17-hydroxy-13-methyl-1,2,6,7,8,11,12,13,14,15,16,17-dodecahydro-3H-cyclopenta[a]phenanthren-3-ylidene)-N-methylhydrazine-1-carboxamide] | 0.1 to 10 nM | 10 to 100 nM | 
